Results taken from the supplement of paper PMC10307832.

How the values were obtained:
Test in all cases: relative viability (nuclei count vs DMSO), 5 days (fraction); higher = more cells survive
BAM7 + Bortezomib = compound: CCOC1=CC=CC=C1N=NC2=C(NN(C2=O)C3=NC(=CS3)C4=CC=CC=C4)C [BAM7] + CC(C)C[C@H](NC(=O)[C@H](Cc1ccccc1)NC(=O)c1cnccn1)B(O)O [Bortezomib] (partner 0.002 µM)
Outline: (§1)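 Relative viability equals treated-well nuclei counts divided by vehicle-well nuclei counts. Counts came from 4× images of lung cancer cell lines grown in 1536-well plates for 5 days after pin-tool dosing on the day after seeding. Dosing used one drug alone or a fixed anchor-drug dose plus five library-drug doses (not always all listed) in √10 steps, and values are medians of duplicate plates.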

[1] = compound: CCn1c(-c2nonc2N)nc2c(C#CC(C)(C)O)ncc(OC[C@H]3CCCNC3)c21 + CC(=O)c1c(C)c2cnc(Nc3ccc(N4CCNCC4)cn3)nc2n(C2CCCC2)c1=O [Palbociclib] (partner 0.5 µM)
Outline: as §1

BAM7 + Linsitinib = compound: CCOC1=CC=CC=C1N=NC2=C(NN(C2=O)C3=NC(=CS3)C4=CC=CC=C4)C [BAM7] + C[C@]1(O)C[C@@H](c2nc(-c3ccc4ccc(-c5ccccc5)nc4c3)c3c(N)nccn32)C1 [Linsitinib] (partner 1 µM)
Outline: as §1

[2] = compound: CCn1c(-c2nonc2N)nc2c(C#CC(C)(C)O)ncc(OC[C@H]3CCCNC3)c21 + Cc1nc(Nc2ncc(C(=O)Nc3c(C)cccc3Cl)s2)cc(N2CCN(CCO)CC2)n1 [Dasatinib] (partner 0.075 µM)
Outline: as §1

Row | Cell Line | relative viability (BAM7 + Bortezomib; first compound 0.5 µM) | relative viability (BAM7 + Bortezomib; first compound 5 µM) | relative viability (BAM7 + Bortezomib; first compound 15.81 µM) | relative viability (BAM7 + Bortezomib; first compound 50 µM) | relative viability ([1]; first compound 0.01 µM) | relative viability ([1]; first compound 0.03162 µM) | relative viability ([1]; first compound 0.1 µM) | relative viability ([1]; first compound 0.3162 µM) | relative viability ([1]; first compound 1 µM) | relative viability (BAM7 + Linsitinib; first compound 0.5 µM) | relative viability (BAM7 + Linsitinib; first compound 5 µM) | relative viability (BAM7 + Linsitinib; first compound 15.81 µM) | relative viability (BAM7 + Linsitinib; first compound 50 µM) | relative viability ([2]; first compound 0.01 µM) | relative viability ([2]; first compound 0.03162 µM) | relative viability ([2]; first compound 0.1 µM) | relative viability ([2]; first compound 0.3162 µM) | relative viability ([2]; first compound 1 µM)
1 | 201T | 1.05 | 1.13 | 0.925 | 0.987 | 0.35 | 0.378 | 0.33 | 0.352 | 0.36 | 1.04 | 1.09 | 0.963 | 1.03 | 0.576 | 0.644 | 0.516 | 0.51 | 0.597
2 | A549 | – | – | – | – | – | – | – | – | – | 0.658 | 0.617 | 0.57 | 0.559 | – | – | – | – | –
3 | A-427 | 0.965 | 0.978 | 0.893 | 1.04 | 0.426 | 0.508 | 0.533 | 0.515 | 0.559 | 1.14 | 1.1 | 1.05 | 1.14 | 0.624 | 0.716 | 0.729 | 0.729 | 0.793
4 | ABC-1 | 0.326 | 0.355 | 0.295 | 0.383 | 0.578 | – | 0.678 | 0.735 | 0.555 | 0.883 | 1.18 | 0.815 | 0.758 | 0.531 | 0.455 | 0.612 | 0.448 | 0.559
5 | BEN | 0.823 | 0.825 | 1.02 | 0.976 | 0.481 | 0.475 | 0.432 | 0.463 | 0.474 | 0.914 | 0.97 | 0.876 | 0.898 | 0.308 | 0.289 | 0.304 | 0.337 | 0.398
6 | CAL-12T | 0.986 | 0.97 | 1 | 1.09 | 0.39 | 0.448 | 0.468 | 0.462 | 0.553 | 0.929 | 0.743 | 0.75 | 0.852 | 0.404 | 0.459 | 0.343 | 0.323 | 0.326
7 | COR-L23 | 1.03 | 1.06 | 0.845 | 0.916 | 0.22 | 0.288 | 0.226 | 0.231 | 0.226 | 0.979 | 0.989 | 0.852 | 0.852 | 0.521 | 0.445 | 0.505 | 0.467 | 0.534
8 | COR-L 105 | 0.747 | 0.831 | 0.854 | 1.03 | 0.401 | 0.37 | 0.419 | 0.39 | 0.42 | 1.14 | 0.801 | 1 | 0.97 | 0.365 | 0.326 | 0.357 | 0.353 | 0.287
9 | Calu-6 | 0.969 | 0.986 | 0.94 | 1.01 | – | – | – | – | – | 1.1 | 1.11 | 0.913 | 1.02 | – | – | – | – | –
